Measurements reported in US7135466B2 (Kirin Beer Kabushiki Kaisha, priority 1999, dated 2006).

These compounds were tested against T1, c-kit (Homo sapiens, UniProt P10721) (assay: Inhibitory activity against c-kit autophosphorylation (MO7e cells, h-SCF)). Conditions: MO7e cells, h-SCF 50 ng/ml; read-out: c-kit IC50.
T1 construct: MO7e (human megakaryocytic leukemia cell line) which had been arrested for 20 hr; endogenous in cells; host or cells: MO7e human megakaryocytic leukemia cell line
Assay type: cell-based
In short: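 MO7e human megakaryocytic leukemia cells, arrested 20 hr, treated with compound 1 hr, then stimulated with 50 ng/ml h-SCF for 5 min and lysed. Lysates captured on immobilized anti-phosphotyrosine antibody, detected with anti-c-kit primary and HRP secondary antibody; absorbance at 450 nm.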

T1 sequence (P10721 26-976): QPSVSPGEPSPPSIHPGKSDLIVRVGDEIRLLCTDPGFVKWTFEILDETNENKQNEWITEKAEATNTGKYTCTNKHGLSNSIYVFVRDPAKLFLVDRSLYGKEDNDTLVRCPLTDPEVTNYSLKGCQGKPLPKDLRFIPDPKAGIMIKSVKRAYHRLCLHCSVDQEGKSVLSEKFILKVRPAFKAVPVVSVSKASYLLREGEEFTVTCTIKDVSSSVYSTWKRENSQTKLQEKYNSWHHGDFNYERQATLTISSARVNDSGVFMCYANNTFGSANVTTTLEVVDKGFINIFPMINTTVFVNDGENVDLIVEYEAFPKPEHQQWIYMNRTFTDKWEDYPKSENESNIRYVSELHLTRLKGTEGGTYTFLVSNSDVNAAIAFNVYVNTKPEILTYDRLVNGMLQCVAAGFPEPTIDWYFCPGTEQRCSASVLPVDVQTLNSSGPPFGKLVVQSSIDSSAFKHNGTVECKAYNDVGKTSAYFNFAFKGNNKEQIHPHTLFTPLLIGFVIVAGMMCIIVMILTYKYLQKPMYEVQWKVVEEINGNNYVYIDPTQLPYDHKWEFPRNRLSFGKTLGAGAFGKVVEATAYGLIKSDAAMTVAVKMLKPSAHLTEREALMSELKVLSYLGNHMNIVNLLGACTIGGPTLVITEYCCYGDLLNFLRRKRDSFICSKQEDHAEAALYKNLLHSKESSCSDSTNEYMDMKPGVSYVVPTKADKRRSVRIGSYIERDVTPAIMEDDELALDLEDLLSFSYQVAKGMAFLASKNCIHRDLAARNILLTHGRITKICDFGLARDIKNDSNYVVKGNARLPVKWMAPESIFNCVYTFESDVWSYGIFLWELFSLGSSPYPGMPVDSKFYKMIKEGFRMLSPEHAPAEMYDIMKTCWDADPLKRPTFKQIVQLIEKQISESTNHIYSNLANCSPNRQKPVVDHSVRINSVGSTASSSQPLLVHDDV

IC50 [nM]	Compound
110	4-Methylbenzyl {4-[(6,7-dimethoxy-4-quinazolinyl)oxy]anilino}methanethioate [Example 110]
412	COc1cc2nccc(Oc3cc(C)c(NC(=O)SCc4ccc(C)cc4)cc3C)c2cc1OC [Example 109, 4-Methylbenzyl {4-[(6,7-dimethoxy-4-quinolyl)oxy]-2,5-dimethylanilino}methanethioate]
180	COc1cc2nccc(Oc3ccc(NC(=O)SCc4ccc(C)cc4)c(C)c3C)c2cc1OC [Example 108, 4-Methylbenzyl {4-[(6,7-dimethoxy-4-quinolyl)oxy]-2,3-dimethylanilino}methanethioate]
72	COc1cccc(COC(=O)Nc2ccc(Oc3ccnc4cc(OC)c(OC)cc34)cc2)c1 [Example 226, 3-Methoxybenzyl N-{4-[(6,7-dimethoxy-4-quinolyl)oxy]phenyl}carbamate]

Same assay, conditions: MO7e cells, h-SCF stimulation; read-out: c-kit IC50

IC50 [nM]	Compound
75	COc1cc2nccc(Oc3ccc(NCCOc4cccc(Cl)c4)cc3)c2cc1OC [Example 860, N-[2-(3-Chlorophenoxy)ethyl]-N-{4-[(6,7-dimethoxy-4-quinolyl)oxy]phenyl}amine]
195	COc1cc2nccc(Oc3ccc(SCCOc4ccccc4C)cc3)c2cc1OC [Example 817, 6,7-Dimethoxy-4-(4-{[2-(2-methylphenoxy)ethyl]sulfanyl}phenoxy)quinoline]
326	COc1cccc(OCCSc2ccc(Oc3ccnc4cc(OC)c(OC)cc34)cc2)c1 [Example 812, 6,7-Dimethoxy-4-(4-{[2-(3-methoxyphenoxy)ethyl]sulfanyl}phenoxy)quinoline]
652	COc1cc2nccc(Oc3ccc(NC(=S)NC(=O)CCc4ccccc4)c(F)c3)c2cc1OC [Example 1026, N-{4-[(6,7-Dimethoxy-4-quinolyl)oxy]-2-fluorophenyl}-N′-(3-phenylpropanoyl)thiourea]
938	COc1cc2nccc(Oc3ccc(NC(=S)NC(=O)c4ccccc4)cc3)c2cc1OC [Example 897, N-Benzoyl-N′-{4-[(6,7-dimethoxy-4-quinolyl)oxy]phenyl}thiourea]
498	COc1cc2nccc(Oc3ccc(NC(=S)NC(=O)c4ccccc4)cc3F)c2cc1OC [Example 911, N-Benzoyl-N′-{4-[(6,7-dimethoxy-4-quinolyl)oxy]-3-fluorophenyl}thiourea]
121	COc1cc2nccc(Oc3ccc(NCCOc4cc(Cl)ccc4Cl)cc3)c2cc1OC [Example 865, N-[2-(2,5-Dichlorophenoxy)ethyl]-N-{4-[(6,7-dimethoxy-4-quinolyl)oxy]phenyl}amine]
145	COc1cc2nccc(Oc3ccc(NC(=S)NC(=O)c4cccc(C)c4)cc3F)c2cc1OC [Example 941, N-{4-[(6,7-Dimethoxy-4-quinolyl)oxy]-3-fluorophenyl}-N′-(3-methylbenzoyl)thiourea]
819	COc1cc2nccc(Oc3ccc(NC(=S)NC(=O)c4cccc(F)c4)c(F)c3)c2cc1OC [Example 937, N-{4-[(6,7-Dimethoxy-4-quinolyl)oxy]-2-fluorophenyl}-N′-(3-fluorobenzoyl)thiourea]
220	COc1cccc(C(=O)NC(=S)Nc2ccc(Oc3ccnc4cc(OC)c(OC)cc34)cc2F)c1 [Example 939, N-{4-[(6,7-Dimethoxy-4-quinolyl)oxy]-2-fluorophenyl}-N′-(3-methoxybenzoyl)thiourea]
597	COc1cc2nccc(Oc3ccc(NC(=S)NC(=O)c4sccc4C)c(F)c3)c2cc1OC [Example 1038, N-{4-[(6,7-Dimethoxy-4-quinolyl)oxy]-2-fluorophenyl}-N′-[(3-methyl-2-thienyl)carbonyl]thiourea]
102	COc1cc2nccc(Oc3ccc(NCCOc4cc(C)cc(C)c4)cc3)c2cc1OC [Example 858, N-{4-[(6,7-Dimethoxy-4-quinolyl)oxy]-phenyl}-N-[2-(3,5-dimethylphenoxy)ethyl]amine]
668	COc1cc2nccc(Oc3ccc(S(=O)(=O)CCOc4ccc(C(C)C)cc4)cc3)c2cc1OC [Example 835, 4-[(6,7-Dimethoxy-4-quinolyl)oxy]phenyl [2-(4-isopropylphenoxy)ethyl]sulfone]
766	CCOc1ccc(C(=O)NC(=S)Nc2ccc(Oc3ccnc4cc(OC)c(OC)cc34)c(Cl)c2)cc1 [Example 992, N-{3-Chloro-4-[(6,7-dimethoxy-4-quinolyl)oxy]phenyl}-N′-(4-ethoxybenzoyl)thiourea]
962	COc1cc2nccc(Oc3ccc(NC(=S)NC(=O)c4ccc([N+](=O)[O-])cc4)cc3C)c2cc1OC [Example 1108, N-{4-[(6,7-Dimethoxy-4-quinolyl)oxy]-3-methylphenyl}-N′-(4-nitrobenzoyl)thiourea]
292	COc1cc2nccc(Oc3ccc(NC(=S)NC(=O)c4cccc(Br)c4)c(F)c3)c2cc1OC [Example 940, N-(3-Bromobenzoyl)-N′-{4-[(6,7-dimethoxy-4-quinolyl)oxy]-2-fluorophenyl}thiourea]
195	COc1cc2nccc(Oc3ccc(NC(=S)NC(=O)c4cc(Cl)cc(Cl)c4)cc3F)c2cc1OC [Example 1015, N-(3,5-Dichlorobenzoyl)-N′-{4-[(6,7-dimethoxy-4-quinolyl)oxy]-3-fluorophenyl}thiourea]
760	COc1cc2ncnc(Oc3ccc(SCCOc4ccccc4F)cc3)c2cc1OC [Example 849, 4-(4-{[2-(2-Fluorophenoxy)ethyl]sulfanyl}phenoxy)-6,7-dimethoxyquinazoline]
405	COc1cc2nccc(Oc3ccc(NC(=S)NC(=O)c4ccc(Cl)cc4)cc3C)c2cc1OC [Example 1111, N-(4-Chlorobenzoyl)-N′-{4-[(6,7-dimethoxy-4-quinolyl)oxy]-3-methylphenyl}thiourea]
175	COc1cc2nccc(Oc3ccc(SCCOc4ccc(C)c(C)c4)cc3)c2cc1OC [Example 827, 4-(4-{[2-(3,4-Dimethylphenoxy)ethyl]sulfanyl}phenoxy)-6,7-dimethoxyquinoline]
179	COc1cc2nccc(Oc3ccc(NCCOc4ccccc4C)cc3)c2cc1OC [Example 852, N-{4-[(6,7-Dimethoxy-4-quinolyl)oxy]phenyl}-N-[2-(2-methylphenoxy)ethyl]amine]
558	COc1cc2nccc(Oc3ccc(NC(=S)NC(=O)c4cc(C)oc4C)c(F)c3)c2cc1OC [Example 1037, N-{4-[(6,7-Dimethoxy-4-quinolyl)oxy]-2-fluorophenyl}-N′-[(2,5-dimethyl-3-furyl)carbonyl]-thiourea]
427	COc1cc2nccc(Oc3ccc(NC(=S)NC(=O)c4cccc(C)c4)c(F)c3)c2cc1OC [Example 936, N-{4-[(6,7-Dimethoxy-4-quinolyl)oxy]-2-fluorophenyl}-N′-(3-methylbenzoyl)thiourea]
289	COc1cc2ncnc(Oc3ccc(NC(=S)NC(=O)c4ccccc4Cl)cc3)c2cc1OC [Example 928, N-(2-Chlorobenzoyl)-N′-{4-[(6,7-dimethoxy-4-quinazolinyl)oxy]phenyl}thiourea]

Same assay, conditions: Mo7e, figure in parentheses in −( ); at 1000 nM

inhibition at 1 µM [%]	Compound
30	COc1cc2nccc(Oc3ccc(NC(=S)NC(=O)c4cccc(Cl)c4)c(C)c3C)c2cc1OC [Example 1083, N-(3-Chlorobenzoyl)-N′-{4-[(6,7-dimethoxy-4-quinolyl)oxy]-2,3-dimethylphenyl}thiourea]
17	COc1cc2nccc(Oc3ccc(NC(=S)NC(=O)c4ccco4)c(F)c3)c2cc1OC [Example 1035, N-{4-[(6,7-Dimethoxy-4-quinolyl)oxy]-2-fluorophenyl}-N′-(2-furylcarbonyl)thiourea]
35	CCc1ccc(C(=O)NC(=S)Nc2ccc(Oc3ccnc4cc(OC)c(OC)cc34)cc2F)cc1 [Example 993, N-{4-[(6,7-Dimethoxy-4-quinolyl)oxy]-2-fluorophenyl}-N′-(4-ethylbenzoyl)thiourea]
15	COc1cc2nccc(Oc3ccc(NC(=S)NC(=O)c4ccc(Cl)cc4)c(C)c3C)c2cc1OC [Example 1082, N-(4-Chlorobenzoyl)-N′-{4-[(6,7dimethoxy-4-quinolyl)oxy]-2,3-dimethylphenyl}thiourea]
42	COc1cc2nccc(Oc3ccc(NC(=S)NC(=O)c4ccccc4F)cc3Cl)c2cc1OC [Example 921, N-{3-Chloro-4-[(6,7-dimethoxy-4-quinolyl)oxy]phenyl}-N′-(2-fluorobenzoyl)thiourea]
41	COc1cc2nccc(Oc3ccc(NC(=S)NC(=O)c4cccc(C)c4)c(C)c3)c2cc1OC [Example 1098, N-{4-[(6,7-Dimethoxy-4-quinolyl)oxy]-2-methylphenyl}-N′-(3-methylbenzoyl)thiourea]
0	COc1cc2nccc(Oc3ccc(NC(=S)NC(=O)c4ccc(C)cc4)c(C)c3C)c2cc1OC [Example 1080, N-{4-[(6,7-Dimethoxy-4-quinolyl)oxy]-2,3-dimethylphenyl}-N′-(4-methylbenzoyl)thiourea]
34	COc1cc2nccc(Oc3ccc(NC(=S)NC(=O)c4ccc(I)cc4)cc3F)c2cc1OC [Example 974, N-{4-[(6,7-Dimethoxy-4-quinolyl)oxy]-3-fluorophenyl}-N′-(4-iodobenzoyl)thiourea]
25	COc1cc2nccc(Oc3ccc(NC(=S)NC(=O)c4cccc(C)c4)c(C)c3C)c2cc1OC [Example 1079, N-{4-[(6,7-Dimethoxy-4-quinolyl)oxy]-2,3-dimethylphenyl}-N′-(3-methylbenzoyl)thiourea]
7	COc1cc2nccc(Oc3ccc(NC(=S)NC(=O)N4c5ccccc5CCc5ccccc54)cc3)c2cc1OC [Example 1047, N-[10,11-Dihydro-5H-dibenzo(b,f)azepin-5-ylcarbonyl]-N′-{4-[(6,7-dimethoxy-4-quinolyl)oxy]phenyl}thiourea]
22	COc1cc2nccc(Oc3ccc(NC(=S)NC(=O)c4ccc(Cl)cc4)cc3Cl)c2cc1OC [Example 978]
